Key:
Assay type in all cases: cell-based
[1] = test system: human peripheral blood mononuclear cells (PBMCs); assay: Cell proliferation of LPS-challenged PBMCs by CellTiter-Glo (CTG); conditions: human PBMCs
Excerpt: (§1) This study was aimed to test the effect of 12 compounds (THCA, Ia1, Ia5, Ia6, Ia9, Ia11, Ia15, Ia17, Ia24, Ia25, Ia27, and Ia28) on human peripheral blood mononuclear cells (PBMCs) challenged by lipopolysaccharide (LPS) through monitoring multiple inflammatory endpoints.
(§2) Blood samples were collected from healthy volunteers according to protocols that have been reviewed and approved by the Chempartner Institutional Ethic Committee (IEC) upon signing an Informed Consent Form (ICF).
(§3) Fresh PBMCs were isolated and seeded into 96-well plate, and diluted solutions of the tested compounds and 0.1 μg/mL LPS were then added (in triplicates). To serve as control, 3 wells with PBMCs only, 3 wells with 0.1 μg/mL LPS, and 2 wells with 1 μg/mL dexamethasone (Dex) and 0.1 μg/mL LPS were included. After 72 hours incubation, supernatant was collected for tumor necrosis factor-α (TNF-α) measurement by enzyme-linked immunosorbent assay (ELISA), and cell pellets were harvested for cell proliferation measurement by CellTiter-Glo® Luminescent Cell Viability Assay (CTG).
(§4) The human blood sample from an individual donor was diluted by the same volume of sterile phosphate buffered solution (PBS) and mixed sufficiently by gentle shake. 15 mL Lymphoprep™ medium was transferred into a new 50 mL centrifuge tube, and the diluted blood sample (30 mL) was then carefully added onto the surface of the medium, which consequently contained Ficoll 400 and blood in a volume ratio of 1:2. Four interfaces were observed after centrifugation, which are, from top to bottom, layers of plasma, mononuclear cells, Ficoll medium, and red blood cells (RBCs). Plasma was absorbed, and mononuclear cells were then transferred into another new sterile centrifuge tube. Then, sterile PBS buffer was added into the collected PBMCs for washing, at a volume ratio of 3:1. PBMCs were washed with 5-10 mL PBS twice before cell counting with cytometer. Cells were centrifuged at 350×g, for 10 min, at 20° C. with the acceleration (5) and deceleration (5) settings during the centrifugation. The cells were resuspended with RPMI 1640 complete medium (containing 10% FBS) for assay, and the density was adjusted with RPMI 1640 complete medium to the final concentration of 2E6 cells/mL. Cells suspension of the PBMCs (100 μL/well) were seeded into 96-well plate (#3903).
(§5) Diluted solutions of the tested compounds were prepared with RPMI 1640 complete medium according to the following layout. Compounds were prepared at 5-fold of concentration (50 μM), and then were diluted to the working concentration of 10 μM with RPMI 1640 complete medium and made 10-fold serially dilution (2 points). The diluted compounds (50 μL/well) were added to the indicated wells, and the plate was incubated at 37° C., 5% CO2, for 72 h.
(§6) LPS (0.1 μg/mL, 100 μL) was added into each well. Dex (1 μg/mL) was included as a positive control. Plate was incubated at 37° C., 5% CO2 for 72 h. Supernatant was collected to measure TNF-α by ELISA. Cell proliferation was detected by CTG.

TNF-α = assay: LPS induced cytokine release assay, TNF-α by ELISA in PBMCs; conditions: human PBMCs; for TNF-α: 72 h; for change of TNF-α expression in LPS-treated cells: tested concentrations of 1 M and 10 M (so in the source)
Excerpt: as §1, §2, §3, §4, §5, §6

[2] = test system: T47D, breast ductal carcinoma; assay: CellTiter-Glo cell viability assay, cancer cell cytotoxicity/anti-proliferation panel (Chempartner); conditions: Table 5, T47D cells, 72 hours; for IC50: Homo sapiens, read-out: AbsIC50; for Inhibition %: 10 μM starting, 10-pt, 3-fold dilution
Protocol: In this study, the biological activity of certain compounds of the present invention on cancer cell cytotoxicity/anti-proliferation panel was tested using the CellTiter-Glo® cell viability assay. The compounds were dissolved in DMSO to make 10 mM solution.
The cell lines tested were all selected from the Chempartner's cell collection and included: Caco-2 ATCC colon adenocarcinoma; TE-6 RIKEN esophagus, carcinoma; PC-3 ATCC prostate adenocarcinoma; T47D, breast ductal carcinoma; U251, brain human glioma; A549, lung carcinoma; OMP-2, multiple myeloma; SK-HEP-1, liver adenocarcinoma; PANC-1, pancreas ductal carcinoma; AsPC-1, pancreas, ductal carcinoma; and U-87 MG, brain glioblastoma.
For the assays described herein, absolute inhibition of cells growth (%) and absolute IC50 (Abs IC50; […]) were used to derive a value that can be used to compare results within and across runs in the same assay, as well as between different assays.
• a. Prepare complete medium: Add FBS and appropriate additives according to the information sheet provided by the vendor. Mix gently. • b. Check the cell name and complete medium and passage number marked on the flask. For adherent cell lines, refer to c to k. For suspension cell lines, refer to g to k. • c. Remove and discard culture medium using a vacuum pump. • d. Briefly rinse the cell layer with 0.25% (w/v) trypsin-0.038% (w/v) EDTA solution to remove all traces of serum that contains trypsin inhibitor. • e. Add 3.0 ml of trypsin-EDTA solution to flask and observe cells under an inverted microscope until cell layer is dispersed. • f. Add 8.0 ml of complete growth medium and aspirate cells by gently pipetting. • g. Transfer the cell suspension to a centrifuge tube and centrifuge at 800-1000 rpm for 3-5 minutes. • h. Discard the supernatant using a vacuum pump. • i. Add appropriate volume of complete medium. Suspend the cell pellet by gently pipetting. • j. Count the cell numbers with Vi-cell XR and adjust cells to appropriate density. • k. Add 100 μL of cell suspension to 96-well opaque-walled clear bottom plates according to the planned plate layout and place the plates in the CO2 incubator overnight. • l. Plate layout:
• Plate preparation of testing articles. 10 mM stock solution of each one of the compounds (provided as powder) was prepared in DMSO. […] 0.5 μL of each of the diluted compounds was transferred to the wells containing 100 μL of the culture medium. The total dilution was 200 fold. Cells were incubated with the compounds for 72 hours at 5% CO2, 37° C.
• Thaw the CellTiter-Glo buffer and equilibrate to room temperature prior to use. • Equilibrate the lyophilized CellTiter-Glo substrate to room temperature prior to use. • Transfer the appropriate volume of CellTiter-Glo buffer into the amber bottle containing CellTiter-Glo substrate to reconstitute the lyophilized enzyme/substrate mixture. This forms the CellTiter-Glo reagent. • Mix by gently vortexing, swirling or by inverting the contents to obtain a homogeneous solution. The CellTiter-Glo substrate should go into solution easily in less than one minute.
• Observe the cell morphology under an inverted microscope after corresponding treatment. • Equilibrate the plate and its contents to room temperature for approximately 30 minutes. • Add 100 μL of CellTiter-Glo reagent to the assay plate by Multidrop Combi instrument. • Mix contents for 10 minutes on an orbital shaker to induce cell lysis. • Allow the plate to incubate at room temperature for 10 minutes to stabilize luminescent signal. • Paste the clear bottom with white back seal and record luminescence with Enspire. The settings should be: Luminescence, measurement time 0.1 ms.
Inhibition (%) and absolute IC50 (μM) of each compound was calculated with XLFit curve fitting software that is compatible to Activity Base.

[3] = compound 1 μM + 0.1 μg/mL LPS, 72 h (LPS control 84.50)
[4] = compound 10 μM + 0.1 μg/mL LPS, 72 h (LPS control 84.50)
[5] = compound 1 μM + 0.1 μg/mL LPS, ELISA (LPS control 18.16)
[6] = compound 10 μM + 0.1 μg/mL LPS, ELISA (LPS control 18.16)

| Compound | CTG signal ([1]; 1 μg/ml Dex + 0.1 μg/ml LPS + 0.1% DMSO, 72 h) | decrease of the level of TNF-α as compared to LPS-treated cells (TNF-α; 1 μg/mL Dex) | TNF-α (TNF-α; 1 μg/ml Dex + 0.1 μg/ml LPS + 0.1% DMSO) | CTG signal [1, 3] | CTG signal [1, 4] | TNF-α (TNF-α; [5]) | TNF-α (TNF-α; [6]) | IC50 [2] | Inhibition % [2] | change of TNF-α expression in LPS-treated cells (TNF-α) |
| --- | --- | --- | --- | --- | --- | --- | --- | --- | --- | --- |
| C[C@@H]1C[C@H]2[C@@H]3CCC4=CC(=O)C=C[C@]4(C)[C@@]3(F)[C@@H](O)C[C@]2(C)[C@@]1(O)C(=O)CO [Dex, dexamethasone, reference compound] | 65.51 10^4 | 2.5 folds | 5.38 pg/mL | – | – | – | – | – | – | – |
| CCCCCc1cc2c(c(O)c1C(N)=O)[C@@H]1C=C(C)CC[C@H]1C(C)(C)O2 [Ia1, (6aR,0aR)-1-hydroxy-6,6,9-trimethyl-3-pentyl-6a,7,8,10a-tetrahydro-6H-benzo[c]chromene-2-carboxamide] | – | – | – | 74.10 10^4 | 70.03 10^4 | 16.30 pg/mL | 11.85 pg/mL | – | – | – |
| CCCCCc1cc2c(c(O)c1C(=O)NCCOC)[C@@H]1C=C(C)CC[C@H]1C(C)(C)O2 [Ia4, (6aR,0aR)-1-hydroxy-N-(2-methoxyethyl)-6,6,9-trimethyl-3-pentyl-6a,7,8,10a-tetrahydro-6H-benzo[c]chromene-2-carboxamide] | – | – | – | – | – | – | – | > 10 µM | 3.13% | – |
| CCCCCc1cc2c(c(O)c1C(=O)NCC1CC1)[C@@H]1C=C(C)CC[C@H]1C(C)(C)O2 [Ia5, (6aR,0aR)—N-(cyclopropylmethyl)-1-hydroxy-6,6,9-trimethyl-3-pentyl-6a,7,8,10a-tetrahydro-6H-benzo[c]chromene-2-carboxamide] | – | – | – | 74.73 10^4 | 76.26 10^4 | 19.60 pg/mL | 32.33 pg/mL | > 10 µM | 7.89% | increased TNF-α expression |
| CCCCCc1cc2c(c(O)c1C(=O)NCc1ccncc1)[C@@H]1C=C(C)CC[C@H]1C(C)(C)O2 [Ia11, 1-hydroxy-6,6,9-trimethyl-3-pentyl-N-(pyridin-4-ylmethyl)-6a,7,8,10a-tetrahydro-6H-benzo[c]chromene-2-carboxamide] | – | – | – | 72.49 10^4 | 74.91 10^4 | 28.40 pg/mL | 15.39 pg/mL | > 10 µM | 15.80% | decreased TNF-α expression |
| CCCCCc1cc2c(c(O)c1C(=O)Nc1ccc(N3CCOCC3)cc1)[C@@H]1C=C(C)CC[C@H]1C(C)(C)O2 [Ia17, (6aR,0aR)-1-hydroxy-6,6,9-trimethyl-N-(4-morpholinophenyl)-3-pentyl-6a,7,8,10a-tetrahydro-6H-benzo[c]chromene-2-carboxamide] | – | – | – | 74.83 10^4 | 72.61 10^4 | 16.44 pg/mL | 24.59 pg/mL | – | – | increased TNF-α expression |
| CCCCCc1cc2c(c(O)c1CNCCCN1CCOCC1)[C@@H]1C=C(C)CC[C@H]1C(C)(C)O2 [Ia21, (6aR,10aR)-6,6,9-trimethyl-2-(((3-morpholinopropyl)amino)methyl)-3-pentyl-6a,7,8,10a-tetrahydro-6H-benzo[c]chromen-1-ol] | – | – | – | – | – | – | – | > 10 µM | 21.68% | – |
| CCCCCc1cc2c(c(O)c1-c1nnc(C)o1)[C@@H]1C=C(C)CC[C@H]1C(C)(C)O2 [Ia24, (6aR,0aR)-6,6,9-Trimethyl-2-(5-methyl-1,3,4-oxadiazol-2-yl)-3-pentyl-6a,7,8,10a-tetrahydro-6H-benzo[c]chromen-1-ol] | – | – | – | 77.88 10^4 | 62.41 10^4 | 32.33 pg/mL | 28.53 pg/mL | – | – | decreased TNF-α expression |
| CCCCCc1cc2c(c(O)c1C(=O)S)[C@@H]1C=C(C)CC[C@H]1C(C)(C)O2 [Ia25, (6aR,0aR)-1-hydroxy-6,6,9-trimethyl-3-pentyl-6a,7,8,10a-tetrahydro-6H-benzo[c]chromene-2-carbothioic S-acid] | – | – | – | 83.27 10^4 | 75.29 10^4 | 42.50 pg/mL | 36.82 pg/mL | – | – | decreased TNF-α expression |

Source: patent US20210087159A1, “TETRAHYDROCANNABINOLIC- CA[…] DERIVATIVES AND USES THEREOF” (AL&AM […]., priority 2018, published 2021)
